Source: patent US4223032A, “Triazolo [4,5-b] quinolines and prophylaxis of allergic diseases with them” (Beecham Group Limited, priority 1977, dated 1980)

Test system: passive cutaneous anaphylaxis (PCA)
Assay: Passive Cutaneous Anaphylaxis (PCA)
Type: in vivo, Male Wistar rats
Settings: rat, i.v., carrier PBS with NaHCO3, time 0 mins before antigen challenge
Description: Passive Cutaneous Anaphylaxis (PCA)
Serum containing heat labile homocytotropic antibody was raised in rats to crystallized ovalbumin XOA by the method of Mota (I. Mota, Immunology, 7,681 [1964] using Bordettela pertussis vaccine as adjuvant.
Passive cutaneous anaphylaxis (PCA) was carried out by a method based on that of Ovary and Bier, (A. Ovary and O. G. Bier, Proc. Soc. Exp. Biol. Med. 81, 584, [1952]) as modified by Goose and Blair. (Immunology 16, 749 [1969]).
Male Wistar rats of 250-300 g. were given 0.1 ml. of each of six twofold serial dilutions of pooled antiserum in 0.9% saline injected intradermally into separate sites on their shaved backs. Later (72 hrs.) the animals were challenged by intravenous injection of 0.3 ml. of a 1% solution of ovalbumin in an isotonic solution of saline buffered with 0.05 M, pH 7.2, Sorenson Buffer (PBS), mixed with 0.2 ml. of a 5% solution of Pontamine Sky Blue (6BX C.I. 24410, Raymond A. Lamb, London) in isotonic saline. The rats were killed after 20 min and the diameter of the blue wheals at the antibody injection sites was measured on the outer surface of the skin. The starting dilution of the serum was adjusted so that there was no response, after challenge, at the injection site of the highest dilution and a maximum response at the lowest dilutions. Typically six twofold serial dilutions of the serum from 1/4 to 1/128 were used.
Compounds were tested for their ability to reduce the diameter of the wheals at those intradermal sites which in control animals gave less than maximum response. Each dose of the compound was administered to six rats at a measured time prior to intravenous challenge with ovalbumin. Control groups of six rats were given the same volume (0.2 ml/100 g) of carrier fluid at the same time prior to the challenge.
The results were calculated as follows. % inhibition of PCA=100 (1-a/b) where a=the sum of the diameters of the wheals produced in the test animal at the sites of antibody dilutions as used in control groups and b=the mean sum of the diameters of the wheals produced in the control group of animals at those antibody sites where at least five out of six of the animals gave less than maximum response. A typical variation in the control group of animals was SEM± 6%.

SMILES | % Inhib PCA (2 mg/kg) [%] | % Inhib PCA (4 mg/kg) [%] | % Inhib PCA (10 mg/kg) [%] | % Inhib PCA (5 mg/kg) [%] | % Inhib PCA (20 mg/kg) [%]
O=c1c2ccccc2[nH]c2nn[nH]c12 [Example 1, 4,9-Dihydro-9-oxo-1H-triazolo[4,5-b] quinoline] | 14 | 22 | 79 |  | 
Cc1ccc2[nH]c3nn[nH]c3c(=O)c2c1 [Example 2, 4,9-dihydro-7-methyl-9-oxo-1H-triazolo[4,5-b] quinoline] |  |  | 65 | 16 | 
O=c1c2cc(Cl)ccc2[nH]c2nn[nH]c12 [Example 3, 7-Chloro-4,9-dihydro-9-oxo-1H-triazolo[4,5-b] quinoline] |  |  |  | 36 | 70
